{"source": "patent EP0476944B1", "about": "“Aromatase inhibiting 4(5)-imidazoles” (ORION-YHTYMÄ OY, priority 1990, dated 1992)", "test": "Acute toxicity, oral, in mice", "conditions": "mouse, in vivo; oral administration; young adult female mice of NMRI-strain; read-out: Acute toxicity, LD₅₀", "protocol": "Acute toxicity, LD₅₀, was determined by using young adult female mice of NMRI-strain. The administration was oral. The LD₅₀-value for 4-[2,4-bis(4-fluorophenyl)butyl]-1H-imidazole was 400 mg/kg."}
{"smiles": "Fc1ccc(CCC(Cc2c[nH]cn2)c2ccc(F)cc2)cc1", "note": "(stereo not shown) [Compound 3, 4-[2,4-bis(4-fluorophenyl)butyl]-1H-imidazole]", "values": [{"measurement": "LD50", "value": 400, "unit": "mg/kg"}]}
